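48-hour exposure; five concentrations; linearly interpolated endpoints. Here, GI50 denotes the concentration required for 50% inhibition of growth.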 Activity calls are given as the source filed them. Cut-off read from the data, not from the text of the source: active = GI50 up to about 1.1 µM and inactive = higher.
How the values were obtained:
Test in all cases: NCI tumour cell line growth inhibition, 48 h
SNB-75 = system: SNB-75
SF-295 = system: SF-295
SK-MEL-5 = system: SK-MEL-5
NCI-H460 = system: NCI-H460
U-251 = system: U-251
CAKI-1 = system: CAKI-1
SN12C = system: SN12C
A549 = system: A549
HOP-92 = system: HOP-92
786-0 = system: 786-0
OVCAR-3 = system: OVCAR-3
RXF 393 = system: RXF 393
MDA-N = system: MDA-N
BT-549 = system: BT-549
SK-OV-3 = system: SK-OV-3
MDA-MB-435 = system: MDA-MB-435
CCRF-CEM = system: CCRF-CEM
OVCAR-4 = system: OVCAR-4
TK-10 = system: TK-10

Row | SMILES | GI50 (SNB-75) | GI50 (SF-295) | GI50 (SK-MEL-5) | GI50 (NCI-H460) | GI50 (U-251) | GI50 (CAKI-1) | GI50 (SN12C) | GI50 (A549) | GI50 (HOP-92) | GI50 (786-0) | GI50 (OVCAR-3) | GI50 (RXF 393) | GI50 (MDA-N) | GI50 (BT-549) | GI50 (SK-OV-3) | GI50 (MDA-MB-435) | GI50 (CCRF-CEM) | GI50 (OVCAR-4) | GI50 (TK-10)
1 | COc1cc(/C=C2\Cc3cc(OC)c(OC)cc3C2=O)cc(OC)c1 | 9.53 µM (inactive) | 4.2 µM (inactive) | 10.8 µM (inactive) | 15.1 µM (inactive) | 35.8 µM (inactive) | > 46.8 µM (inactive) | > 74.1 µM (inactive) | > 96.6 µM (inactive) | 22.8 µM (inactive) | 19.2 µM (inactive) | > 92.3 µM (inactive) | 19.8 µM (inactive) | 0.771 µM (active) | 15.3 µM (inactive) | 17 µM (inactive) | 1.04 µM (active) | > 100 µM (inactive) | > 45.4 µM (inactive) | 48 µM (inactive)
2 | CC(=O)Oc1cc2c(n(C)c1=O)-c1ccccc1C2 | > 100 µM (inactive) | > 100 µM (inactive) | 85.3 µM (inactive) | 43.8 µM (inactive) | 75.9 µM (inactive) | 29.1 µM (inactive) | > 100 µM (inactive) | 63.7 µM (inactive) | 46.7 µM (inactive) | > 100 µM (inactive) | 33.3 µM (inactive) | > 100 µM (inactive) | > 100 µM (inactive) | 46.1 µM (inactive) | > 100 µM (inactive) | > 100 µM (inactive) | 34.2 µM (inactive) | 32.5 µM (inactive) | 51.8 µM (inactive)
3 | Cc1[nH]c2ccccc2c1/C=N/NC(=O)c1cccc(I)c1 | 22.4 µM (inactive) | 18.7 µM (inactive) | 15.7 µM (inactive) | 17.1 µM (inactive) | 21.5 µM (inactive) | 18.2 µM (inactive) | 30.2 µM (inactive) | 29.2 µM (inactive) | 14.4 µM (inactive) | 20.7 µM (inactive) | 20.7 µM (inactive) | 17.5 µM (inactive) | 22.1 µM (inactive) | 21.9 µM (inactive) | 32.2 µM (inactive) | 17.3 µM (inactive) | 26 µM (inactive) | 16.1 µM (inactive) | 26.7 µM (inactive)
4 | COc1ccc2nc3n(c2c1)C(c1c(Cl)cccc1Cl)SC3 (stereo not drawn) | > 100 µM (inactive) | > 100 µM (inactive) | > 100 µM (inactive) | > 100 µM (inactive) | > 100 µM (inactive) | > 100 µM (inactive) | > 100 µM (inactive) | > 100 µM (inactive) | > 100 µM (inactive) | > 100 µM (inactive) | > 100 µM (inactive) | > 100 µM (inactive) | 87.9 µM (inactive) | > 100 µM (inactive) | > 100 µM (inactive) | > 100 µM (inactive) | > 100 µM (inactive) | 24.7 µM (inactive) | > 100 µM (inactive)
5 | COc1ccc(/C=N/n2c(Cc3ccc(Cl)cc3)n[nH]c2=O)c(OC)c1 | 15.9 µM (inactive) | 19 µM (inactive) | > 10 µM (inactive) | > 100 µM (inactive) | 32.2 µM (inactive) | 45.4 µM (inactive) | > 10 µM (inactive) | 27.4 µM (inactive) | 29.2 µM (inactive) | 22.4 µM (inactive) | 35.2 µM (inactive) | 19.1 µM (inactive) | 57.9 µM (inactive) | 35.2 µM (inactive) | 26.1 µM (inactive) | 36.8 µM (inactive) | > 100 µM (inactive) | 16 µM (inactive) | 18.2 µM (inactive)
6 | Clc1ccc(/N=C2\c3ccccc3CN2c2ccc(Cl)cc2)cc1 | 63.8 µM (inactive) | 10.4 µM (inactive) | 1.43 µM (inactive) | 62.8 µM (inactive) | > 100 µM (inactive) | > 100 µM (inactive) | > 100 µM (inactive) | 29.9 µM (inactive) | 39.9 µM (inactive) | > 100 µM (inactive) | 52.7 µM (inactive) | 29.8 µM (inactive) | 30.1 µM (inactive) | > 100 µM (inactive) | > 100 µM (inactive) | > 100 µM (inactive) | < 0.01 µM (active) | 61.9 µM (inactive) | 87.5 µM (inactive)
7 | COC(=O)C1Cc2c([nH]c3ccccc23)C(c2cccc(O)c2)N1 (stereo not drawn) | 23.6 µM (inactive) | 45.7 µM (inactive) | 40.9 µM (inactive) | 26.3 µM (inactive) | 35 µM (inactive) | 57 µM (inactive) | 40.9 µM (inactive) | 41 µM (inactive) | 28.4 µM (inactive) | 49.1 µM (inactive) | 42 µM (inactive) | 25.8 µM (inactive) | 19.5 µM (inactive) | 22.3 µM (inactive) | 56.4 µM (inactive) | 18.2 µM (inactive) | 19 µM (inactive) | 41.2 µM (inactive) | > 100 µM (inactive)

Reference: ChEMBL document CHEMBL1201862, “PubChem BioAssay data set” (2004)
